Reference: ChEMBL document CHEMBL1914306, “The design, synthesis and biological evaluation of novel URB602 analogues as potential monoacylglycerol lipase inhibitors” (Bioorg Med Chem Lett, 2011)

Columns and labels:
[1] = molecular target: T1, Monoglyceride lipase (Homo sapiens) (UniProt Q99685); experiment: Inhibition of human recombinant MAGL assessed as remaining activity at 1 uM after 10 mins by spectrophotometry relative to control
T1 sequence (whole entry): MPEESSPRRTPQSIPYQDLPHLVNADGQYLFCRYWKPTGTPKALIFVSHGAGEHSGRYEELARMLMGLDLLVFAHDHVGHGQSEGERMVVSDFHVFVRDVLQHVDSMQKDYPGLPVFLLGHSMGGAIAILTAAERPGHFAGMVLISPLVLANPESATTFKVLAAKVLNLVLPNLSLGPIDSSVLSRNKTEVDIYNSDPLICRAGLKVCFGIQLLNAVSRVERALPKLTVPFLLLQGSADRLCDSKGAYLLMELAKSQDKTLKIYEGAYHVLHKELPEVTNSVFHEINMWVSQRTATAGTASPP

[2] = molecular target: T1, Monoglyceride lipase (Homo sapiens); experiment: Inhibition of human recombinant MAGL assessed as remaining activity at 10 uM after 10 mins by spectrophotometry relative to control
[3] = molecular target: T1, Monoglyceride lipase (Homo sapiens); experiment: Inhibition of human recombinant MAGL assessed as remaining activity at 100 uM after 10 mins by spectrophotometry relative to control
[4] = molecular target: T1, Monoglyceride lipase (Homo sapiens); experiment: Inhibition of MAGL assessed as remaining activity using 4-nitrophenylacetate as substrate at 10 uM relative to control

Structure (SMILES)	Activity [1]	Activity [2]	Activity [3]	Activity [4]
O=C(Nc1cccc(-c2ccc(O)cc2)c1)OC1CCCCC1	83%	46%	26%	
S=C(Nc1cccc(-c2ccccc2)c1)NC1CCCCC1	93%	76%		
S=C(Nc1cccc(-c2ccccc2)c1)OC1CCCCCC1	79%	83%		
O=C(Nc1cccc(-c2ccccc2)c1)OC1CCCC1	93%	71%		
O=C(Nc1cccc(-c2ccccc2)c1)OC1CCCCC1	93%	71%	73%	84%
S=C(Nc1cccc(-c2ccccc2)c1)OC1CCCCC1	73%	83%		
O=C(Nc1cccc(-c2ccccc2)c1)OC1CCCCCC1	94%	71%		
O=C(Nc1cccc(-c2ccc(Cl)cc2)c1)OC1CCCCC1	85%	81%	81%	
O=C(Nc1cccc(-c2ccccc2)c1)O[C@H]1C[C@H]2CC[C@@H]1C2	95%	79%		
O=C(Nc1cccc(-c2ccccc2)c1)NC1CCCCCC1	96%	80%	55%	
CC(C)[C@@H]1CC[C@@H](C)C[C@H]1OC(=O)Nc1cccc(-c2ccccc2)c1	106%	101%		
O=C(Nc1cccc(-c2ccccc2)c1)NC1CCCC1	80%	73%		
O=C(Nc1cccc(-c2ccccc2)c1)OC1CCC1	97%	86%	85%	
O=C(Nc1cccc(-c2ccccc2)c1)NC1CCCCC1	98%	79%	78%	
O=C(Nc1cccc(-c2ccccc2)c1)OC1CCCCCCC1	101%	92%		
